The source of these data is patent US4490364A, “CCK Agonists II” (The Salk Institute for Biological Studies, priority 1983, dated 1984).

Assay [1] has as its system isolated strips of rabbit gall bladder. The assay is described as follows: contraction of the gall bladder (CCK-activity), isolated strips of rabbit gall bladder. Format: cell-based. The method, then: (§1) To determine the effectiveness of the various synthetic peptides, they are tested for their ability to stimulate the contraction of the gall bladder, for gastrinic activity in the stomach and for their anticonvulsive effect. Certain well known tests are carried out, and the results are measured and compared to the activity of CCK(1-8). Some of the results are given as a percentage relative to the activity of CCK(1-8). The ability to stimulate the contraction of the gall bladder is measured using a modified method of Amer and Becvar, described in J. Endocrinology, 43, 637 (1969) and employing isolated strips of rabbit gall bladder.

Assay [2] concerns perfused rat stomach. As to the kind of experiment: gastrinic activity on perfused rat stomach, conductometric titration of HCl liberated after iv administration. The assay is classed as in vivo. Here is the method: as §1
Assay [3] concerns mouse. As to the kind of experiment: anticonvulsive effect against picrotoxin-induced seizures in the mouse. The assay is classed as in vivo. The settings on record: peptide about 0.8 micromoles per kg parenterally, then picrotoxin i.p., relative to CCK(1-8) = 100%. Here is the method:
The anticonvulsive effect is measured by the method as generally described in The European J. of Pharm., 65, 297 (1980). More specifically, a mouse is first injected parenterally with the peptide being tested with a single dose equal to about 0.8 micromoles per kilogram of body weight. Thereafter, picrotoxin is injected i.p. in an amount equal to about […] of body weight. The parameters that are measured: time until first tremor, time until first clonic seizure, time until first tonic seizure and time of latentia until death, measured from the time of injection of the picrotoxin.

The conditions of assay [4]: Ondetti and Pluscec; cited from earlier work.
The test system of assay [5] is muscle sphincter Oddii. The settings on record: cited from earlier work.
The subject of assay [6] is secretion of gastric acid. The settings on record: i.v. at low dosages; cited from earlier work.

Non-standard residues stand in square brackets, D forms with d. Residues, ends and D or L forms follow the SMILES beside them. sY = N[C@@H](Cc1ccc(OS(=O)(=O)O)cc1)C(=O)O

Take “H--Asp--Tyr(OSO3 Na)--Nle--Gly--Trp--Nle--Hyp(OSO3 Na)--Tyr(OCH3)--NH2”: in assay [1] (result in words), the “CCK activity compared with CCK(1-8)” value is on record as “CCK activity significantly greater than CCK(1-8)”. Also, the gastrinic activity entry in assay [2] (result in words) is “substantially no gastrinic activity”.
Regarding `CSCC[C@H](NC(=O)[C@H](Cc1c[nH]c2ccccc12)NC(=O)[C@@H](C)NC(=O)[C@H](CCSC)NC(=O)[C@H](Cc1ccc(OS(=O)(=O)O)cc1)NC(C)=O)C(=O)N[C@@H](CC(=O)O)C(=O)N[C@@H](Cc1ccccc1)C(N)=O` [[D-Ala^4]-Ac-CCK (2-8), Ac--Tyr(OSO3 Na)--Met--D--Ala--Trp--Met--Asp--Phe--NH2] (Ac-[sY]M[dA]WMDF-NH2), in assay [3], the “Delay until first tonic seizure (efficacy)” value amounted to 100% and the “Delay until time of death (efficacy)” value is recorded as 126%. In assay [1] (relative to CCK(1-8) = 100%, contraction of isolated rabbit gall bladder strips), the “CCK-activity % /CCK (1-8) 100%/” value is 40%. In assay [2] (relative to pentagastrin = 100%, perfused rat stomach, iv), the “gastrinic activity % /Pentagastrin 100%/” value came out at 0%.
Regarding `CSCC[C@H](NC(=O)[C@H](Cc1ccc(OS(=O)(=O)O)cc1)NC(=O)[C@@H](N)CC(=O)O)C(=O)NCC(=O)N[C@@H](Cc1c[nH]c2ccccc12)C(=O)N[C@@H](CCSC)C(=O)N[C@@H](CC(=O)O)C(=O)N[C@@H](Cc1ccccc1)C(N)=O` [CCK (1-8)], in assay [3], the “Delay until first tonic seizure (efficacy)” value came out at 100% and the “Delay until time of death (efficacy)” value came to 100%. Moreover, the “activity compared with the complete molecule of cholecystokinin-pancreozymin” value in assay [4] is listed as “considerably higher activity than the complete molecule of cholecystokinin-pancreozymin”. Also, the “action on the muscle sphincter Oddii” value in assay [5] is listed as “strong relaxing action”. The “gastrinic activity in causing secretion of gastric acid” value in assay [6] is recorded as “some gastrinic activity”.
